# Where two headings read alike, the source gives them in different places.
# Experiments:
# H460 cells [1] = experiment: Intracellular activation of hypoxia activated prodrugs (drug metabolism in medium of cells, LC-MS/UV 370 nm); details: for Example 12 compound UV peak area (370 nm): drug only (no cells), ~30 μM, 3 hours 37° C
# H460 cells [2] = test system: H460 cells
# H460 cells [3] = experiment: Clonogenic toxicity assay; format: cell-based, human; details: 2 hr compound exposure; for IC90: Homo sapiens, NCI-H460, normoxic (air) and anoxic, no significant difference
# Description: The clonogenic assay measures the reproductive ability of a surviving cell by specifically determining if a cell can grow to form a colony of greater than 50 cells. Briefly, cells are treated with a drug for an acute exposure and then the drug is removed. Cells are trypinized to form single cell suspensions and known numbers of cells are plated and incubated until colonies form. Colonies are counted and the cell survival is calculated based on number of colonies formed in the treated groups compared to number of colonies formed in the untreated controls. […] The terms aerobic and normoxic are used interchangeably.
# Exponentially growing human H460 cells (obtained from ATCC) were seeded into 60 mm notched glass plates between 2.5 and 5×10^5 cells per plate and grown in RPMI medium supplemented with 10% fetal bovine serum for 2 days prior to initiating treatment. On the day of the experiment drug stocks of known concentrations were prepared in complete medium and 2 ml added to each plate. Glass plates were sealed into airtight aluminum vessels equipped with a valve to control gas flow. To achieve complete equilibration between the gas phase and the liquid phase a series of gas exchanges were performed on each vessel while shaking. Vessels were evacuated and gassed with either a certified anoxic gas mixture (95% nitrogen and 5% carbon dioxide) or with aerobic gas mixture (95% air and 5% carbon dioxide). Specifically, each vessel was evacuated to minus 26 inches of mercury and held for 15 seconds before gassing at 20 psi and again holding for 15 seconds. After a series of five evacuations and gassings the vessels were held an additional 5 minutes before a final evacuation and refilling of each vessel with the desired gas mixture at 0.5 psi above atmospheric pressure. Cells were incubated for 2 hours at 37° C. […] The exact concentration of each stock was determined by counting with a Coulter Z2 particle counter. […] Colonies of greater than 50 cells were counted and the surviving fraction determined.
compound,measurement,setting,value
"CC[C@@]1(O)C(=O)OCc2c1cc1n(c2=O)Cc2cc3cc(O)ccc3nc2-1 [10-OH Camptothecin, 10-Hydroxycamptothecin, reference compound]",Example 12 compound UV peak area (370 nm),H460 cells [1]; aerobic,0
same,Example 12 compound UV peak area (370 nm),H460 cells [1]; anoxic,0
CCC1(O)C(=O)OCc2c1cc1n(c2=O)Cc2cc3cc(OCc4cnc([N+](=O)[O-])n4C)ccc3cc2-1 (stereo not drawn) [Example 12],selectivity of release mechanism (anoxic versus hypoxic),H460 cells [1]; in words,highly selective
same,degree of release (conversion to 10 hydroxy-camptothecin),"H460 cells [1]; trial 4: anoxic, with H460 cells",over half
same,release of 10 hydroxycamptothecin,H460 cells [2],no detectable release
same,10-Hydroxy Campothecin UV peak area (370 nm),"H460 cells [2]; 3 h, 30 uM",~0
COc1cccc2c1C(=O)c1c(O)c3c(c(O)c1C2=O)C[C@@](O)(C(C)=O)C[C@@H]3O[C@H]1C[C@H](N)[C@H](O)[C@H](C)O1 [daunorubicin],toxicity difference between normoxic (air) and anoxic conditions,H460 cells [3],no significant toxicity difference
same,IC90,H460 cells [3]; read-out: IC 90 (90% inhibition of colony formation),500 nM
same,IC90,H460 cells [3]; read-out: IC 90 data ranges over multiple experiments,200 to 1000 nM
